According to ChEMBL document CHEMBL3351696, “Design of chemically stable, potent, and efficacious MDM2 inhibitors that exploit the retro-mannich ring-opening-cyclization reaction mechanism in spiro-oxindoles” (J Med Chem, 2014):
Calls of active or inactive are those of the source. No cut-off for these calls is given here.

Experiments:
physchem [1] = details: 1:1 CH3CN/H2O
physchem [2] = details: 1:1 CH3CN/H2O; remark: listed apart in the source
physchem [3] = details: 1:1 CH3CN/H2O; remark: listed apart in the source
physchem [4] = details: 1:1 CH3CN/H2O; remark: listed apart in the source
SJSA-1 [5] = assay: cells; details: Homo sapiens
cells [6] = details: Homo sapiens, HCT-116
cells [7] = details: Homo sapiens, HCT-116; remark: listed apart in the source
physchem [8] = details: 1:1 CH3CN/H2O solution
physchem [9] = details: 1:1 MeOH/H2O solution
SJSA-1 [10] = details: Homo sapiens, 200 mg/kg

Structure (SMILES): C[C@]1(O)C[C@@H](NC(=O)[C@@H]2NC3(CCCCC3)[C@@]3(C(=O)Nc4cc(Cl)ccc43)[C@H]2c2cccc(Cl)c2F)C1
- remaining at 72 h (physchem [1]): 100%
- remaining at 24 h (physchem [2]): 100%
- remaining at 0 h (physchem [3]): 100%
- remaining at 144 h (physchem [4]): 100%
- IC50 (SJSA-1 [5]): 0.16 µM

Structure (SMILES): O=C(NCCN1CCOCC1)[C@@H]1NC2(CCC2)[C@]2(C(=O)Nc3cc(Cl)ccc32)[C@H]1c1cccc(Cl)c1F
- IC50 (SJSA-1 [5]): 1.65 µM

Structure (SMILES): O=C(NCCN1CCOCC1)[C@@H]1NC2(CCC2)[C@@]2(C(=O)Nc3cc(Cl)ccc32)[C@H]1c1cccc(Cl)c1F
- IC50 (SJSA-1 [5]): 2.3 µM

Structure (SMILES): CC1(C)N[C@@H](C(=O)N[C@H]2CC[C@H](O)CC2)[C@H](c2cccc(Cl)c2F)[C@]12C(=O)Nc1cc(Cl)ccc12
- IC50 (SJSA-1 [5]): 2.9 µM

Structure (SMILES): O=C(NCCN1CCOCC1)[C@@H]1NC2(CCCCC2)[C@@]2(C(=O)Nc3cc(Cl)ccc32)[C@H]1c1cccc(Cl)c1F
- remaining at 72 h (physchem [1]): 99.6%
- remaining at 24 h (physchem [2]): 100%
- remaining at 0 h (physchem [3]): 100%
- remaining at 144 h (physchem [4]): 99.2%
- IC50 (SJSA-1 [5]): 0.3 µM

Structure (SMILES): CCC1(CC)N[C@@H](C(=O)N[C@H]2C[C@@](C)(O)C2)[C@H](c2cccc(Cl)c2F)[C@]12C(=O)Nc1cc(Cl)ccc12
- IC50 (SJSA-1 [5]): > 10 µM

Structure (SMILES): C[C@]1(O)C[C@@H](NC(=O)[C@@H]2NC3(CCC3)[C@]3(C(=O)Nc4cc(Cl)ccc43)[C@H]2c2cccc(Cl)c2F)C1
- IC50 (SJSA-1 [5]): 1.46 µM

Structure (SMILES): O=C(N[C@H]1CC[C@H](O)CC1)[C@@H]1NC2(CCCC2)[C@@]2(C(=O)Nc3cc(Cl)ccc32)[C@H]1c1cccc(Cl)c1F
- IC50 (SJSA-1 [5]): 0.65 µM

Structure (SMILES): O=C(O)c1ccc(NC(=O)[C@@H]2NC3(CCCCC3)[C@@]3(C(=O)Nc4cc(Cl)ccc43)[C@H]2c2cccc(Cl)c2F)cc1
- IC50 (cells [6]): > 10 µM
- IC50 (cells [7]): 0.25 µM
- IC50 (SJSA-1 [5]): 0.1 µM

Structure (SMILES): CC(C)(C)C[C@@H]1N[C@@H](C(=O)NCCN2CCOCC2)[C@H](c2cccc(Cl)c2F)[C@]12C(=O)Nc1cc(Cl)ccc12
- remaining at 72 h (physchem [1]): 86.9%
- remaining at 24 h (physchem [2]): 90.8%
- remaining at 0 h (physchem [3]): 98.1%
- remaining at 144 h (physchem [4]): 82.7%

Structure (SMILES): O=C(NCC[C@H](O)CO)[C@@H]1NC2(CCC2)[C@]2(C(=O)Nc3cc(Cl)ccc32)[C@H]1c1cccc(Cl)c1F
- IC50 (SJSA-1 [5]): 1.67 µM

Structure (SMILES): CCC1(CC)N[C@@H](C(=O)N[C@H]2CC[C@H](O)CC2)[C@H](c2cccc(Cl)c2F)[C@]12C(=O)Nc1cc(Cl)ccc12
- IC50 (SJSA-1 [5]): 5.4 µM

Structure (SMILES): CCC1(CC)N[C@@H](C(=O)NCC[C@H](O)CO)[C@H](c2cccc(Cl)c2F)[C@]12C(=O)Nc1cc(Cl)ccc12
- IC50 (SJSA-1 [5]): > 10 µM

Structure (SMILES): CC(C)(C)C[C@@H]1N[C@@H](C(=O)N[C@H]2C[C@@](C)(O)C2)[C@H](c2cccc(Cl)c2F)[C@]12C(=O)Nc1cc(Cl)ccc12
- remaining at 72 h (physchem [1]): 98.6%
- degraded at 168 h (physchem [8]): 2%
- remaining at 24 h (physchem [2]): 99.6%
- remaining at 0 h (physchem [3]): 100%
- remaining at 144 h (physchem [4]): 97.7%
- degraded at 168 h (physchem [9]): 2%

Structure (SMILES): CC(C)(C)C[C@@H]1N[C@@H](C(=O)NCC[C@H](O)CO)[C@H](c2cccc(Cl)c2F)[C@]12C(=O)Nc1cc(Cl)ccc12
- remaining at 72 h (physchem [1]): 95.7%
- remaining at 24 h (physchem [2]): 95.8%
- remaining at 0 h (physchem [3]): 97.5%
- remaining at 144 h (physchem [4]): 91.4%

Structure (SMILES): O=C(N[C@H]1CC[C@H](O)CC1)[C@@H]1NC2(CCCCCC2)[C@@]2(C(=O)Nc3cc(Cl)ccc32)[C@H]1c1cccc(Cl)c1F
- IC50 (SJSA-1 [5]): 2.1 µM

Structure (SMILES): O=C(N[C@H]1CC[C@H](O)CC1)[C@@H]1NC2(CCCCC2)[C@@]2(C(=O)Nc3cc(Cl)ccc32)[C@H]1c1cccc(Cl)c1F
- IC50 (cells [6]): > 10 µM
- IC50 (cells [7]): 0.32 µM
- TGI (SJSA-1 [10]): Active
- IC50 (SJSA-1 [5]): 0.19 µM

Structure (SMILES): C[C@]1(O)C[C@@H](NC(=O)[C@@H]2NC3(CCC3)[C@@]3(C(=O)Nc4cc(Cl)ccc43)[C@H]2c2cccc(Cl)c2F)C1
- IC50 (SJSA-1 [5]): 1.68 µM

Structure (SMILES): O=C(NCC[C@H](O)CO)[C@@H]1NC2(CCC2)[C@@]2(C(=O)Nc3cc(Cl)ccc32)[C@H]1c1cccc(Cl)c1F
- IC50 (SJSA-1 [5]): 2.08 µM

Structure (SMILES): CCCC1(CCC)N[C@@H](C(=O)N[C@H]2CC[C@H](O)CC2)[C@H](c2cccc(Cl)c2F)[C@]12C(=O)Nc1cc(Cl)ccc12
- IC50 (SJSA-1 [5]): 6.9 µM

Structure (SMILES): CCC1(CC)N[C@@H](C(=O)NCCN2CCOCC2)[C@H](c2cccc(Cl)c2F)[C@]12C(=O)Nc1cc(Cl)ccc12
- IC50 (SJSA-1 [5]): > 10 µM

Structure (SMILES): O=C(NCC[C@H](O)CO)[C@@H]1NC2(CCCCC2)[C@@]2(C(=O)Nc3cc(Cl)ccc32)[C@H]1c1cccc(Cl)c1F
- remaining at 72 h (physchem [1]): 100%
- remaining at 24 h (physchem [2]): 100%
- remaining at 0 h (physchem [3]): 100%
- remaining at 144 h (physchem [4]): 100%
- IC50 (SJSA-1 [5]): 0.2 µM

Structure (SMILES): O=C(N[C@H]1CC[C@H](O)CC1)[C@@H]1NC2(CCC2)[C@@]2(C(=O)Nc3cc(Cl)ccc32)[C@H]1c1cccc(Cl)c1F
- IC50 (SJSA-1 [5]): 1.6 µM

Structure (SMILES): O=C(N[C@H]1CC[C@H](O)CC1)[C@@H]1NC2(CCC2)[C@]2(C(=O)Nc3cc(Cl)ccc32)[C@H]1c1cccc(Cl)c1F
- IC50 (SJSA-1 [5]): 2 µM
